Tests used:
Test in all cases: LF/GMP assay, viable plate count (pour plate) of broth culture
Type in all cases: cell-based
Details in all cases: for Log Difference: sialic acid 1,000 ppm vs 0 ppm, + = more growth
[1] = test system: Pseudomonas aeruginosa ATCC #27853
Experimental: Bacterial strains used in this study were Pseudomonas aeruginosa ATCC #27853, Streptococcus mutans ATCC #33535, Streptococcus pyogenes ATCC #19615, and Actinobacillus haemophilus ATCC #43717 and an oral swab from a healthy adult. Bacteria were grown on blood/BHT media (Brain Heart Infusion Agar with protease peptone, sodium chloride, glucose, di-sodium phosphate, and agar, Oxoid, Hampshire England, Sheep's Blood) in the presence of 5% CO2 at 35° C. Bacteria were harvested by swabbing inoculated growth plates after 24 hours and diluting the colonies in 9 ml of deionized water (DI water) until a suspension of 0.5 McFarland Turbidity Standard was reached using the nephelometer (McFarland Turbidity Meter). The 0.5 McFarland value is approximately equivalent to 1.0×10^8 organisms. One ml of the appropriate bacterial dilution was taken using a sterile pipette and introduced into 8 ml of sterilized BHI broth. (Preparation of BHI broth: 37 g+1,000 ml DI water, Difco Laboratories. By pipette, 9 ml of broth was placed into medium test tubes as means of a control and 8 ml test tubes were prepared for the concentration tests).
This solution was filtered through a 0.45 μm filter. […] Example for calculating 2,500 ppm dilution (1,000 ppm=0.1%): [formula] [formula] [formula] […]
One mL of each bacterial strain, plus one mL of sialic acid solution (1,000 ppm) were inoculated into test tubes filled with 8 mL of BHI broth. Each test tube was vortexed, incubated for 24 hours at 35° C. with 5% CO2, and then pour plated in BHI agar to obtain a plate count.
This technique was used to determine the density of living (viable) cells in inoculated broth cultures. It involves plating a bacterial sample and counting the resulting colonies after incubation. A serial dilution of the original broth was taken prior to plating. The serial dilution is necessary to reduce the density of organisms in order to create countable plates. Only plates containing between 25 and 250 colonies are considered countable. Cell densities are traditionally recorded as CFU (colony forming unit)/ml. By convention, when 1.0 ml is inoculated onto a plate, the dilution factor (DF) is recorded as tenfold greater. Formula: [formula]
The assays required the use of a pour plate technique. The pour plate technique adds a step to the conventional serial dilution. The 1 ml of dilution is added to a warm emulsion of dilute nutrient (BHI) agar to produce an agar overlay in the petri plates. After incubation, the bacterial growth covers the entire plate but individual cellular movement has been restricted by the soft agar overlay. Each colony formed is assumed to have originated from a single CFU. The plates were gently mixed, inverted, and incubated for 18-24 hour at 35° C. […]

[2] = test system: Streptococcus mutans ATCC #33535
Experimental: (§1) Bacterial strains used in this study were Pseudomonas aeruginosa ATCC #27853, Streptococcus mutans ATCC #33535, Streptococcus pyogenes ATCC #19615, and Actinobacillus haemophilus ATCC #43717 and an oral swab from a healthy adult. Bacteria were grown on blood/BHT media (Brain Heart Infusion Agar with protease peptone, sodium chloride, glucose, di-sodium phosphate, and agar, Oxoid, Hampshire England, Sheep's Blood) in the presence of 5% CO2 at 35° C. […] One ml of the appropriate bacterial dilution was taken using a sterile pipette and introduced into 8 ml of sterilized BHI broth. […] By pipette, 9 ml of broth was placed into medium test tubes as means of a control and 8 ml test tubes were prepared for the concentration tests). […] This solution was filtered through a 0.45 μm filter. […] To study the kinetics of LF/GMP binding, each strain of bacteria was taken separately with a sterile pipette and placed into an 8 ml BHI broth test tube, vortexed, and incubated in the presence of 1 ml of LF or GMP for 18-24 hours at 35° C. with 5% CO2. In the combination procedure, 0.5 ml of both LF and […] were taken as 1 ml inoculations. One mL of each bacterial strain, plus one mL of sialic acid solution (1,000 ppm) were inoculated into test tubes filled with 8 mL of BHI broth. Each test tube was vortexed, incubated for 24 hours at 35° C. with 5% CO2, and then pour plated in BHI agar to obtain a plate count. This technique was used to determine the density of living (viable) cells in inoculated broth cultures. It involves plating a bacterial sample and counting the resulting colonies after incubation. A serial dilution of the original broth was taken prior to plating. The serial dilution is necessary to reduce the density of organisms in order to create countable plates. Only plates containing between 25 and 250 colonies are considered countable. Cell densities are traditionally recorded as CFU (colony forming unit)/ml. […] Formula: [formula] The assays required the use of a pour plate technique. The pour plate technique adds a step to the conventional serial dilution. The 1 ml of dilution is added to a warm emulsion of dilute nutrient (BHI) agar to produce an agar overlay in the petri plates. After incubation, the bacterial growth covers the entire plate but individual cellular movement has been restricted by the soft agar overlay. Each colony formed is assumed to have originated from a single CFU. The plates were gently mixed, inverted, and incubated for 18-24 hour at 35° C. Using a control (one broth tube inoculated with a bacterial strain, but no LF), the effectiveness of LF was examined. Each test tube containing a specified amount of LF (50, 100, 250, 500, 1,000 ppm and 3000 ppm) was diluted and plates were poured. […] A. haemophilus, S. mutans, S. pyrogenes and an oral culture were tested at 35° C. Pseudomonas aeruginosa was tested at both room temperature and 35° C. with 5% CO2. This was done because P. aeruginosa is not strictly an oral pathogen. It is commonly found in the environment in various conditions. It can be found in the environment and oral intake can cause inflammation in the oral cavity. Most normal oral bacteria are only found in the mouth and are not taken in from outside factors. Therefore, P. aeruginosa is a threat in both temperature settings. […] (see Table 2).

[3] = test system: Actinobacillus haemophilus ATCC #43717
Experimental: as §1

[4] = 24 hours at 35° C. with 5% CO2, listed as Sialic acid
[5] = sialic acid 1,000 ppm, 24 hours at 35° C. with 5% CO2
[6] = sodium bicarbonate pH 4.36, column 1,000 ppm

## CC(=O)N[C@H]1[C@H]([C@H](O)[C@H](O)CO)OC(O)(C(=O)O)C[C@@H]1O (stereo partly drawn) [Sialic Acid, N-acetylneuraminic acid, reference compound]
[1]; 24 hours at 35° C. with 5% CO2
  Log Difference: ^+1 log
[1]; [4]
  Log Difference: increased the amount of bacterial growth by one log
[1]; [5]
  plate count: 1.0 × 10^9
[2]; 24 hours at 35° C. with 5% CO2
  Log Difference: 0 log
[2]; [4]
  Log Difference: did not reduce the bacterial growth
[2]; [5]
  plate count: 5.4 × 10^7
[3]; 24 hours at 35° C. with 5% CO2
  Log Difference: 0 log
[3]; [4]
  Log Difference: did not reduce the bacterial growth
[3]; [5]
  plate count: 2.9 × 10^8

## O=C([O-])O.[Na+] [Sodium Bicarbonate, Sodium bicarbonate]
[1]; [6]
  pour plate count: 6.0 × 10^6
[2]; [6]
  pour plate count: 8.4 × 10^7
[3]; [6]
  pour plate count: 1.9 × 10^8

Source: patent publication US6890900B2, “Methods for treating or preventing diseases of the oral cavity” (Campina B.V., priority 2001, dated 2005)
